# Legend:
# Assay in all cases: relative viability (nuclei count vs DMSO), 5 days (fraction); higher = more cells survive
# 201T = test system: 201T
# Summary of the method: (§1)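 For relative viability, nuclei counts in treated wells were divided by those in vehicle wells. Lung cancer cell lines had been pin-tool dosed in 1536-well plates the day after seeding and cultured for 5 days, then fixed and stained in one step (final 0.05% Triton X-100, 1% formaldehyde, 1 ug/ml Hoechst) and imaged at 4×. Doses were one drug alone or a fixed anchor-drug dose plus five library-drug doses (not always all listed) in √10 steps, and values are duplicate-plate medians.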
# BEN = test system: BEN
# Summary of the method: as §1
# CAL-12T = test system: CAL-12T
# Summary of the method: as §1
# HCC-44 = test system: HCC-44
# Summary of the method: as §1
# HCC-827 = test system: HCC-827
# Summary of the method: as §1
# HOP-62 = test system: HOP-62
# Summary of the method: as §1
# LCLC-103H = test system: LCLC-103H
# Summary of the method: as §1
# LCLC-97TM1 = test system: LCLC-97TM1
# Summary of the method: as §1
# LXF-289 = test system: LXF-289
# Summary of the method: as §1
# NCI-H1355 = test system: NCI-H1355
# Summary of the method: as §1
# NCI-H1395 = test system: NCI-H1395
# Summary of the method: as §1
# NCI-H1437 = test system: NCI-H1437
# Summary of the method: as §1
# NCI-H1793 = test system: NCI-H1793
# Summary of the method: as §1
# NCI-H2023 = test system: NCI-H2023
# Summary of the method: as §1
# NCI-H2087 = test system: NCI-H2087
# Summary of the method: as §1
# NCI-H2228 = test system: NCI-H2228
# Summary of the method: as §1
# NCI-H2405 = test system: NCI-H2405
# Summary of the method: as §1
# NCI-H3122 = test system: NCI-H3122
# Summary of the method: as §1
# NCI-H322M = test system: NCI-H322M
# Summary of the method: as §1
# NCI-H647 = test system: NCI-H647
# Summary of the method: as §1
# NCI-H727 = test system: NCI-H727
# Summary of the method: as §1
# RERF-LC-KJ = test system: RERF-LC-KJ
# Summary of the method: as §1
# SK-LU-1 = test system: SK-LU-1
# Summary of the method: as §1
compound,measurement,setting,value
C[C@@H]1CN(CC(=O)Nc2ccc3c(c2)Cc2cccc(-c4cc(=O)cc(N5CCOCC5)o4)c2S3)C[C@H](C)O1 + C[C@]1(O)C[C@@H](c2nc(-c3ccc4ccc(-c5ccccc5)nc4c3)c3c(N)nccn32)C1 [Linsitinib] (partner 1 µM),relative viability,201T; first compound 0.04 µM,1.09
same,relative viability,201T; first compound 0.1265 µM,1.01
same,relative viability,201T; first compound 0.4 µM,1.01
same,relative viability,201T; first compound 4 µM,1.01
same,relative viability,BEN; first compound 0.04 µM,0.782
same,relative viability,BEN; first compound 0.1265 µM,0.832
same,relative viability,BEN; first compound 0.4 µM,1.1
same,relative viability,BEN; first compound 4 µM,0.86
same,relative viability,CAL-12T; first compound 0.04 µM,0.893
same,relative viability,CAL-12T; first compound 0.1265 µM,0.78
same,relative viability,CAL-12T; first compound 0.4 µM,0.648
same,relative viability,CAL-12T; first compound 4 µM,0.54
same,relative viability,HCC-44; first compound 0.04 µM,0.636
same,relative viability,HCC-44; first compound 0.1265 µM,0.683
same,relative viability,HCC-44; first compound 0.4 µM,0.537
same,relative viability,HCC-44; first compound 4 µM,0.632
same,relative viability,HCC-827; first compound 0.04 µM,1
same,relative viability,HCC-827; first compound 0.1265 µM,0.895
same,relative viability,HCC-827; first compound 0.4 µM,0.978
same,relative viability,HCC-827; first compound 4 µM,0.954
same,relative viability,HOP-62; first compound 0.04 µM,0.93
same,relative viability,HOP-62; first compound 0.1265 µM,0.945
same,relative viability,HOP-62; first compound 0.4 µM,0.897
same,relative viability,HOP-62; first compound 4 µM,0.947
same,relative viability,LCLC-103H; first compound 0.04 µM,1.09
same,relative viability,LCLC-103H; first compound 0.1265 µM,0.896
same,relative viability,LCLC-103H; first compound 0.4 µM,1.18
same,relative viability,LCLC-103H; first compound 4 µM,1.14
same,relative viability,LCLC-97TM1; first compound 0.1265 µM,0.157
same,relative viability,LCLC-97TM1; first compound 0.4 µM,0.204
same,relative viability,LCLC-97TM1; first compound 4 µM,0.204
same,relative viability,LXF-289; first compound 0.04 µM,0.981
same,relative viability,LXF-289; first compound 0.1265 µM,0.983
same,relative viability,LXF-289; first compound 0.4 µM,1.02
same,relative viability,LXF-289; first compound 4 µM,0.933
same,relative viability,NCI-H1355; first compound 0.04 µM,0.857
same,relative viability,NCI-H1355; first compound 0.1265 µM,0.792
same,relative viability,NCI-H1355; first compound 0.4 µM,0.866
same,relative viability,NCI-H1355; first compound 4 µM,0.815
same,relative viability,NCI-H1395; first compound 0.04 µM,1.14
same,relative viability,NCI-H1395; first compound 0.1265 µM,1.16
same,relative viability,NCI-H1395; first compound 0.4 µM,0.992
same,relative viability,NCI-H1395; first compound 4 µM,0.953
same,relative viability,NCI-H1437; first compound 0.04 µM,1.01
same,relative viability,NCI-H1437; first compound 0.1265 µM,0.989
same,relative viability,NCI-H1437; first compound 0.4 µM,0.939
same,relative viability,NCI-H1437; first compound 4 µM,0.575
same,relative viability,NCI-H1793; first compound 0.04 µM,1.02
same,relative viability,NCI-H1793; first compound 0.1265 µM,0.695
same,relative viability,NCI-H1793; first compound 0.4 µM,0.779
same,relative viability,NCI-H1793; first compound 4 µM,0.445
same,relative viability,NCI-H2023; first compound 0.04 µM,0.751
same,relative viability,NCI-H2023; first compound 0.1265 µM,0.669
same,relative viability,NCI-H2023; first compound 0.4 µM,0.433
same,relative viability,NCI-H2023; first compound 4 µM,0.496
same,relative viability,NCI-H2087; first compound 0.04 µM,0.939
same,relative viability,NCI-H2087; first compound 0.1265 µM,1
same,relative viability,NCI-H2087; first compound 0.4 µM,0.91
same,relative viability,NCI-H2087; first compound 4 µM,0.772
same,relative viability,NCI-H2228; first compound 0.04 µM,0.685
same,relative viability,NCI-H2228; first compound 0.1265 µM,0.731
same,relative viability,NCI-H2228; first compound 0.4 µM,0.34
same,relative viability,NCI-H2228; first compound 4 µM,0.334
same,relative viability,NCI-H2405; first compound 0.04 µM,0.896
same,relative viability,NCI-H2405; first compound 0.1265 µM,1.04
same,relative viability,NCI-H2405; first compound 0.4 µM,0.832
same,relative viability,NCI-H2405; first compound 4 µM,0.881
same,relative viability,NCI-H3122; first compound 0.04 µM,1.07
same,relative viability,NCI-H3122; first compound 0.1265 µM,0.933
same,relative viability,NCI-H3122; first compound 0.4 µM,1.02
same,relative viability,NCI-H3122; first compound 4 µM,0.99
same,relative viability,NCI-H322M; first compound 0.04 µM,1.01
same,relative viability,NCI-H322M; first compound 0.1265 µM,0.847
same,relative viability,NCI-H322M; first compound 0.4 µM,0.857
same,relative viability,NCI-H322M; first compound 4 µM,0.79
same,relative viability,NCI-H647; first compound 0.04 µM,1.28
same,relative viability,NCI-H647; first compound 0.1265 µM,1.12
same,relative viability,NCI-H647; first compound 0.4 µM,0.926
same,relative viability,NCI-H647; first compound 4 µM,0.76
same,relative viability,NCI-H727; first compound 0.04 µM,0.38
same,relative viability,NCI-H727; first compound 0.1265 µM,0.348
same,relative viability,NCI-H727; first compound 0.4 µM,0.332
same,relative viability,NCI-H727; first compound 4 µM,0.3
same,relative viability,RERF-LC-KJ; first compound 0.04 µM,0.922
same,relative viability,RERF-LC-KJ; first compound 0.1265 µM,0.907
same,relative viability,RERF-LC-KJ; first compound 0.4 µM,0.91
same,relative viability,RERF-LC-KJ; first compound 4 µM,0.774
same,relative viability,SK-LU-1; first compound 0.04 µM,1.18
same,relative viability,SK-LU-1; first compound 0.1265 µM,1.19
same,relative viability,SK-LU-1; first compound 0.4 µM,1.27
same,relative viability,SK-LU-1; first compound 4 µM,0.835
CC(C)Oc1cc(Nc2nc(N[C@@H](C)c3ccc(F)cn3)ncc2Cl)n[nH]1 [AZ23] + C[C@]1(O)C[C@@H](c2nc(-c3ccc4ccc(-c5ccccc5)nc4c3)c3c(N)nccn32)C1 [Linsitinib] (partner 1 µM),relative viability,201T; first compound 0.01 µM,1.01
same,relative viability,201T; first compound 0.03162 µM,1.11
same,relative viability,201T; first compound 0.3162 µM,0.996
same,relative viability,BEN; first compound 0.01 µM,1
same,relative viability,BEN; first compound 0.03162 µM,0.966
same,relative viability,BEN; first compound 0.3162 µM,0.977
same,relative viability,CAL-12T; first compound 0.01 µM,0.551
same,relative viability,CAL-12T; first compound 0.03162 µM,0.724
same,relative viability,CAL-12T; first compound 0.3162 µM,0.861
same,relative viability,HCC-44; first compound 0.01 µM,0.684
same,relative viability,HCC-44; first compound 0.03162 µM,0.74
same,relative viability,HCC-44; first compound 0.3162 µM,0.632
same,relative viability,HCC-827; first compound 0.01 µM,1
same,relative viability,HCC-827; first compound 0.03162 µM,1.04
same,relative viability,HCC-827; first compound 0.3162 µM,0.93
same,relative viability,HOP-62; first compound 0.01 µM,1.09
same,relative viability,HOP-62; first compound 0.03162 µM,0.992
same,relative viability,HOP-62; first compound 0.3162 µM,0.95
same,relative viability,LCLC-103H; first compound 0.01 µM,1.07
same,relative viability,LCLC-103H; first compound 0.03162 µM,1.03
same,relative viability,LCLC-103H; first compound 0.3162 µM,1.15
same,relative viability,LCLC-97TM1; first compound 0.01 µM,0.185
same,relative viability,LCLC-97TM1; first compound 0.03162 µM,0.17
same,relative viability,LCLC-97TM1; first compound 0.3162 µM,0.168
same,relative viability,LXF-289; first compound 0.01 µM,1.13
same,relative viability,LXF-289; first compound 0.03162 µM,1.1
same,relative viability,LXF-289; first compound 0.3162 µM,0.941
same,relative viability,NCI-H1355; first compound 0.01 µM,0.909
same,relative viability,NCI-H1355; first compound 0.03162 µM,0.784
same,relative viability,NCI-H1355; first compound 0.3162 µM,0.724
same,relative viability,NCI-H1395; first compound 0.03162 µM,1.09
same,relative viability,NCI-H1395; first compound 0.3162 µM,0.975
same,relative viability,NCI-H1437; first compound 0.01 µM,1.07
same,relative viability,NCI-H1437; first compound 0.03162 µM,1.18
same,relative viability,NCI-H1437; first compound 0.3162 µM,1.28
same,relative viability,NCI-H1793; first compound 0.01 µM,1.04
same,relative viability,NCI-H1793; first compound 0.03162 µM,0.983
same,relative viability,NCI-H1793; first compound 0.3162 µM,0.952
same,relative viability,NCI-H2023; first compound 0.03162 µM,0.666
same,relative viability,NCI-H2023; first compound 0.3162 µM,0.731
same,relative viability,NCI-H2087; first compound 0.01 µM,1.34
same,relative viability,NCI-H2087; first compound 0.03162 µM,1.06
same,relative viability,NCI-H2087; first compound 0.3162 µM,0.955
same,relative viability,NCI-H2228; first compound 0.01 µM,0.828
same,relative viability,NCI-H2228; first compound 0.03162 µM,0.727
same,relative viability,NCI-H2228; first compound 0.3162 µM,0.473
same,relative viability,NCI-H2405; first compound 0.01 µM,0.976
same,relative viability,NCI-H2405; first compound 0.03162 µM,0.902
same,relative viability,NCI-H2405; first compound 0.3162 µM,0.873
same,relative viability,NCI-H3122; first compound 0.01 µM,1.01
same,relative viability,NCI-H3122; first compound 0.03162 µM,1.01
same,relative viability,NCI-H3122; first compound 0.3162 µM,1.06
same,relative viability,NCI-H322M; first compound 0.01 µM,0.919
same,relative viability,NCI-H322M; first compound 0.03162 µM,0.957
same,relative viability,NCI-H322M; first compound 0.3162 µM,1.13
same,relative viability,NCI-H647; first compound 0.01 µM,1.48
same,relative viability,NCI-H647; first compound 0.03162 µM,1.17
same,relative viability,NCI-H647; first compound 0.3162 µM,1.26
same,relative viability,NCI-H727; first compound 0.01 µM,0.354
same,relative viability,NCI-H727; first compound 0.03162 µM,0.281
same,relative viability,NCI-H727; first compound 0.3162 µM,0.277
same,relative viability,RERF-LC-KJ; first compound 0.01 µM,0.833
same,relative viability,RERF-LC-KJ; first compound 0.03162 µM,0.992
same,relative viability,RERF-LC-KJ; first compound 0.3162 µM,0.987
same,relative viability,SK-LU-1; first compound 0.01 µM,0.893
same,relative viability,SK-LU-1; first compound 0.03162 µM,1.16
same,relative viability,SK-LU-1; first compound 0.3162 µM,0.932

# — the supplement of paper PMC10307832
